# Experimental data from patent US11634409B2, “Compounds for the treatment of BRAF-associated diseases and disorders” (Array BioPharma Inc., priority 2019, dated 2023).
# System: A375-luciferase intracranial tumor xenografts
# Assay: Intracranial A375-luciferase efficacy and survival mouse tumor model
# Format: in vivo, Female nu/nu NCr mice
# Conditions: BID PO 60 consecutive days, FIG. 15
# Procedure: Female nu/nu NCr mice from Envigo (Indianapolis, Ind.) were obtained at 5-6 weeks of age and housed in groups of 5. Following a one week minimum acclimation period, mice received orthotopic (i.c.) intracranial injections of 3.0×10^3 A375-luciferase tumor cells suspended in a volume of 10 μL 0.9% sterile Dulbecco's phosphate buffered saline (DPBS) using the top-down approach (Laursen and Belknap, 1986). Seven days post cell implant (Day 1), animals were randomized and sorted into five groups (n=10/group).
# Test compounds were given at a dose volume of 10 mL/kg, and vehicles were matched for each group to control for dosing stress, i.e. all groups received twice daily (BID) dose administration by oral gavage (PO) at the relevant dose volumes and schedule shown in Table 9. Tumor growth was monitored by measuring luciferase activity twice per week. Total flux/mouse can vary by an order of magnitude on day 1 of study start (start of dosing). The total flux was normalized per mouse by assigning the first measurement of flux on day 2 as 100%. Body weight loss as an indicator of tumor progression was determined daily during the dosing interval and then as needed (at least once weekly). Survival was evaluated through day 90 (30 days post-dosing cessation).
smiles,measurement,value
"Cc1c(Nc2c(F)ccc(NS(=O)(=O)CCCF)c2Cl)ccc2ncn(C)c(=O)c12 [Example 82, N-(2-chloro-3-((3,5-dimethyl-4-oxo-3,4-dihydroquinazolin-6-yl)amino)-4-fluorophenyl)-3-fluoropropane-1-sulfonamide]","Tumor growth (total bioluminescence, luciferase activity)",significant effect on tumor growth
